Marks after values point to notes of the source that are not given here.
What was measured:
[1] = system: co-culture of Caco-2 and HT29-MTX cell lines; test: Intestinal permeability assay, Caco-2/HT29-MTX co-culture, LC-MS quantification; assay type: in vitro ADME, human; conditions: for calculated concentration, basolateral side / calculated concentration, apical side: OMWW B1 sample, mean ± SD (n = 3); for calculated concentration, apical side: apical (100% reference); for Mean Permeation Rate (±SD) at 240 min: polyphenol within OMWW B1 sample (500 µg/mL), apical to basolateral
Experimental: The instrumental setup consisted of an Agilent (Santa Clara, CA, USA) 1290 UHPLC system, which included a binary pump, a column oven maintained at 40 °C, and a temperature-controlled autosampler. This system was connected to a Sciex (Concord, ON, Canada) QTRAP 6500+ mass spectrometer operating as a triple quadrupole, equipped with an IonDrive™ Turbo V source performing electrospray ionization (ESI). […] The instrument control and data acquisition were performed using Sciex Analyst® version 1.7 software and MultiquantTM software version 3.0.3. Data analysis was carried out using Microsoft 365® Excel software (Albuquerque, NM, USA) and GraphPad (San Diego, CA, USA) Prism version 9.0.2. The mass spectrometry selected reaction monitoring (SRM) method was operated in negative ion mode. For each compound, declustering potential (DP), collision energy (CE), and collision exit potential (CxP) were optimized, and three transitions were considered for analysis. One transition was used for quantification (Q), while the other two were used as qualifiers (q). The transition list and additional operational parameters are already reported. A stock solution of each standard compound, including the internal standard, was prepared in MeOH at a concentration of 100 μg/mL and stored at −20 °C. Calibration curves were freshly prepared in pure LC-MS water. […] [34]. The experiments were performed 21 days after seeding the cells in 12 well plates. During this period, the transepithelial electrical resistance (TEER) was monitored to evaluate the cell monolayer integrity. On the last day, cell monolayers were pre-equilibrated with fresh HBSS (pH 7.4) at 37 °C for 30 min. […] At the same time, the TEER was evaluated, using an EVOM Epithelial Volthometer Instrument equipped with a chopstick electrode (World Precision Instruments, Sarasota, FL, USA). After each sampling time, the basolateral side was replaced with the same HBSS volume. Samples were conserved at −20 °C for subsequent LC/ESI-MS analysis, according to Section 2.5.

[2] = Superoxide radical scavenging assay (NBT reduction); assay type: biochemical; conditions: mean ± SD (n = 3)
Experimental: The superoxide radical (O2^−) scavenging capacity was spectrophotometrically evaluated, in accordance with Gomes et al.. Absorbance was read at 560 nm for 6 min at 37 °C in a Synergy HT Microplate Reader. The results were expressed as IC50, of the reduction in NBT to a purple-colored diformazan by the reaction with O2.

[3] = Hypochlorous acid scavenging assay (DHR oxidation); assay type: biochemical; conditions: mean ± SD (n = 3)
Experimental: The uptake capacity of hypochlorous acid (HOCl^−) was determined by monitoring the effect of OMWW extracts in the HOCl^− induced oxidation of dihydrorhodamine (DHR) to rhodamine, as reported by Gomes et al.. The fluorescence was read at 37 °C for 5 min, at wavelengths of 485 ± 20 nm and 528 ± 20 nm. The results were expressed as the inhibition, in IC50, of HOCl^− induced DHR oxidation.

[4] = ABTS radical cation scavenging assay; assay type: biochemical; conditions: mean ± standard error (n = 3); 5 min, rt
Experimental: The ABTS free radical scavenging activity of samples was evaluated by radical cation colorimetric assay in accordance with Cuffaro et al.. Briefly, the ABTS solution (7 mM of aqueous solution of ABTS with 2.45 mM potassium persulfate in a 1:1 ratio) was incubated for 12 h in the dark at rt. Then, the solution was diluted with EtOH to obtain an absorbance of 0.7 at 750 nm. A total of 10 μL of sample solution (1 mg/mL to 0.01 mg/mL) in EtOH was mixed with 180 μL of ABTS solution and the solution was incubated for 5 min at rt. The final absorbance was read at 734 nm in a Molecular Devices […] (200-1000 nm) UV/Vis spectrophotometer. The % scavenging ability was calculated as follows:% scavenging ability = ([…] = ABTS solution absorbance Abssample = ABTS solution containing the test compound absorbance. […] Trolox® was employed as positive control and was treated under the same conditions as the samples. All experiments were performed in triplicate.

[5] = DPPH free radical scavenging assay; assay type: biochemical; conditions: mean ± standard error (n = 3); 45 min, rt
Experimental: The antiradical activity of OMWW and EVOO samples was assessed by the DPPH free radical scavenging, as reported by Cuffaro et al.. Briefly, 100 μL of DPPH MeOH solution (40.0 μg/mL) was added to 100 μL of the sample solution in MeOH (1 mg/mL to 0.01 mg/mL), and the resulting solution was incubated for 45 min at rt and in the dark. The absorbance was read at 517 nm in a Molecular Devices […] (200-1000 nm) UV/Vis spectrophotometer. Trolox® was the positive control and was treated under the same conditions as the samples. The percent of antioxidant activity (%AA) was calculated according to the following equation:%AA = ([…] = DPPH solution absorbance Abssample = DPPH solution containing the test compound absorbance […] All experiments were performed in triplicate.

[6] = system: co-culture of Caco-2 and HT29-MTX cell lines; set-up: method as in PMID 37446813; conditions: tyrosol alone, same model; cited from earlier work

SMILES: O=C(O)/C=C/c1ccc(O)c(O)c1 [Caffeic acid]
- calculated concentration, basolateral side ([1]; 30 min): 0,31 ± 0,10 ng/mL
- calculated concentration, basolateral side ([1]; 60 min): 0,40 ± 0,25 ng/mL
- calculated concentration, basolateral side ([1]; 120 min): 1,29 ± 0,31 ng/mL
- calculated concentration, basolateral side ([1]; 180 min): 2,00 ± 0,01 ng/mL
- calculated concentration, basolateral side ([1]; 240 min): 1,89 ± 0,42 ng/mL
- calculated concentration, apical side [1]: 7,31 ± 0,74 ng/mL
- Mean Permeation Rate (±SD) at 240 min ([1]; 240 min): 26 ± 3%
- Mean Permeation Rate (±SD) at 240 min ([1]; 240 min, listed as caffeic acid): 26%

SMILES: O.Oc1cc(O)c2c(c1)O[C@H](c1ccc(O)c(O)c1)[C@@H](O)C2 [Catechin]
- O2^− scavenging IC50 [2]: 18.01 ± 0.34 ^c,d μg/mL
- HOCl^− scavenging IC50 [3]: 0.20 ± 0.01 ^b μg/mL

SMILES: O=C(O)c1cc(O)c(O)c(O)c1 [Gallic acid]
- O2^− scavenging IC50 [2]: 6.34 ± 0.21 ^d μg/mL
- HOCl^− scavenging IC50 [3]: 2.60 ± 0.05 ^b μg/mL

SMILES: OCCc1ccc(O)c(O)c1 [Hydroxytyrosol]
- calculated concentration, basolateral side ([1]; 30 min): 7,42 ± 5,35 ng/mL
- calculated concentration, basolateral side ([1]; 60 min): 9,12 ± 5,78 ng/mL
- calculated concentration, basolateral side ([1]; 120 min): 15,75 ± 5,02 ng/mL
- calculated concentration, basolateral side ([1]; 180 min): 19,40 ± 2,55 ng/mL
- calculated concentration, basolateral side ([1]; 240 min): 15,20 ± 1,98 ng/mL
- calculated concentration, apical side [1]: 45,30 ± 0,85 ng/mL
- Mean Permeation Rate (±SD) at 240 min ([1]; 240 min): 34 ± 5%
- Mean Permeation Rate (±SD) at 240 min ([1]; 240 min, listed as hydroxytyrosol): 34%

SMILES: Cc1c(C)c2c(c(C)c1O)CCC(C)(C(=O)O)O2 (stereo not drawn) [Trolox]
- ABTS IC50 [4]: 0.003 ± 0.0004 ^i mg/mL
- DPPH IC50 [5]: 0.007 ± 0.001 ^h mg/mL

SMILES: OCCc1ccc(O)cc1 [Tyrosol]
- calculated concentration, basolateral side ([1]; 30 min): 155,50 ± 6,36 ng/mL
- calculated concentration, basolateral side ([1]; 60 min): 224,50 ± 21,92 ng/mL
- calculated concentration, basolateral side ([1]; 120 min): 259,50 ± 47,38 ng/mL
- calculated concentration, basolateral side ([1]; 180 min): 256,50 ± 13,44 ng/mL
- calculated concentration, basolateral side ([1]; 240 min): 314,00 ± 33,94 ng/mL
- calculated concentration, apical side [1]: 587,50 ± 234,05 ng/mL
- Mean Permeation Rate (±SD) at 240 min ([1]; 240 min): 59 ± 29%
- permeation (release) at 240 min [6]: 78%

Reference: PMC11507932, “Comparative Analysis on Polyphenolic Composition of Different Olive Mill Wastewater and Related Extra Virgin Olive Oil Extracts and Evaluation of Nutraceutical Properties by Cell-Based Studies” (Foods, 2024)
